In the NIST ThermoML archive (doi:10.1016/j.jct.2006.11.003):

Test: xn = mol fraction of the nth substance listed
Conditions: 101 kPa, Liquid

Cc1ccc(C)cc1 [1,4-dimethylbenzene] + CN1CCCC1=O
Conditions	mass density [kg/m3]
293.15 K, x1 = 0.0511	1023.02
293.15 K, x1 = 0.1204	1010.11
293.15 K, x1 = 0.1985	995.8
293.15 K, x1 = 0.2451	987.37
293.15 K, x1 = 0.2987	977.77
293.15 K, x1 = 0.3458	969.44
293.15 K, x1 = 0.4012	959.72
293.15 K, x1 = 0.4781	946.42
293.15 K, x1 = 0.5314	937.3
293.15 K, x1 = 0.5984	925.99
293.15 K, x1 = 0.6558	916.4
293.15 K, x1 = 0.7154	906.57
293.15 K, x1 = 0.7841	895.34
293.15 K, x1 = 0.8512	884.52
293.15 K, x1 = 0.9254	872.69
293.15 K, x1 = 1	860.95
303.15 K, x1 = 0.0645	1011.3
303.15 K, x1 = 0.1151	1001.91
303.15 K, x1 = 0.1814	989.76
303.15 K, x1 = 0.2654	974.62
303.15 K, x1 = 0.3214	964.66
303.15 K, x1 = 0.3854	953.43
303.15 K, x1 = 0.4515	941.97
303.15 K, x1 = 0.5024	933.26
303.15 K, x1 = 0.5685	922.06
303.15 K, x1 = 0.6214	913.21
303.15 K, x1 = 0.6754	904.26
303.15 K, x1 = 0.7451	892.85
303.15 K, x1 = 0.8114	882.12
303.15 K, x1 = 0.8841	870.51
303.15 K, x1 = 0.9514	859.89
303.15 K, x1 = 1	852.3
313.15 K, x1 = 0.0521	1004.87
313.15 K, x1 = 0.1142	993.77
313.15 K, x1 = 0.1721	983.53
313.15 K, x1 = 0.2302	973.36
313.15 K, x1 = 0.3065	960.16
313.15 K, x1 = 0.3615	950.77
313.15 K, x1 = 0.4115	942.31
313.15 K, x1 = 0.4841	930.18
313.15 K, x1 = 0.5547	918.53
313.15 K, x1 = 0.6208	907.77
313.15 K, x1 = 0.7055	894.15
313.15 K, x1 = 0.7805	882.26
313.15 K, x1 = 0.8372	873.36
313.15 K, x1 = 0.8947	864.42
313.15 K, x1 = 0.9539	855.29
323.15 K, x1 = 0.0575	994.81
323.15 K, x1 = 0.1247	982.32
323.15 K, x1 = 0.2011	968.35
323.15 K, x1 = 0.2784	954.42
323.15 K, x1 = 0.338	943.85
323.15 K, x1 = 0.4015	932.73
323.15 K, x1 = 0.4697	920.97
323.15 K, x1 = 0.5389	909.19
323.15 K, x1 = 0.6003	898.9
323.15 K, x1 = 0.6674	887.8
323.15 K, x1 = 0.7245	878.46
323.15 K, x1 = 0.7806	869.38
323.15 K, x1 = 0.8341	860.82
323.15 K, x1 = 0.8947	851.21
323.15 K, x1 = 0.9481	842.83
323.15 K, x1 = 1	834.76
333.15 K, x1 = 0.0462	987.58
333.15 K, x1 = 0.1025	977.11
333.15 K, x1 = 0.1724	964.26
333.15 K, x1 = 0.2354	952.85
333.15 K, x1 = 0.2951	942.18
333.15 K, x1 = 0.3658	929.72
333.15 K, x1 = 0.4315	918.31
333.15 K, x1 = 0.5007	906.49
333.15 K, x1 = 0.5714	894.57
333.15 K, x1 = 0.6378	883.55
333.15 K, x1 = 0.7047	872.6
333.15 K, x1 = 0.7533	864.73
333.15 K, x1 = 0.8258	853.13
333.15 K, x1 = 0.8846	843.83
333.15 K, x1 = 0.9479	833.93
333.15 K, x1 = 1	825.86
343.15 K, x1 = 0.0675	974.69
343.15 K, x1 = 0.1353	962.13
343.15 K, x1 = 0.2024	949.85
343.15 K, x1 = 0.2715	937.41
343.15 K, x1 = 0.3376	925.68
343.15 K, x1 = 0.4061	913.71
343.15 K, x1 = 0.4719	902.38
343.15 K, x1 = 0.5422	890.46
343.15 K, x1 = 0.6103	879.09
343.15 K, x1 = 0.6749	868.44
343.15 K, x1 = 0.7405	857.78
343.15 K, x1 = 0.8049	847.44
343.15 K, x1 = 0.8674	837.54
343.15 K, x1 = 0.9308	827.6
343.15 K, x1 = 0.9788	820.15
343.15 K, x1 = 1	816.87
353.15 K, x1 = 0.0567	967.91
353.15 K, x1 = 0.1134	957.31
353.15 K, x1 = 0.1826	944.57
353.15 K, x1 = 0.2527	931.85
353.15 K, x1 = 0.3072	922.09
353.15 K, x1 = 0.3857	908.27
353.15 K, x1 = 0.4584	895.67
353.15 K, x1 = 0.5036	887.95
353.15 K, x1 = 0.5757	875.79
353.15 K, x1 = 0.6382	865.4
353.15 K, x1 = 0.7016	855.01
353.15 K, x1 = 0.7613	845.35
353.15 K, x1 = 0.8139	836.93
353.15 K, x1 = 0.8846	825.75
353.15 K, x1 = 0.9378	817.44
353.15 K, x1 = 1	807.81

Cc1cccc(C)c1 [1,3-dimethylbenzene] + CN1CCCC1=O
Conditions	mass density [kg/m3]
293.15 K, x1 = 0.0451	1024.18
293.15 K, x1 = 0.1145	1011.33
293.15 K, x1 = 0.1874	998.07
293.15 K, x1 = 0.2451	987.76
293.15 K, x1 = 0.3258	973.58
293.15 K, x1 = 0.3987	961
293.15 K, x1 = 0.4657	949.63
293.15 K, x1 = 0.5214	940.31
293.15 K, x1 = 0.5985	927.59
293.15 K, x1 = 0.6584	917.85
293.15 K, x1 = 0.7214	907.73
293.15 K, x1 = 0.7987	895.48
293.15 K, x1 = 0.8547	886.71
293.15 K, x1 = 0.9048	878.92
293.15 K, x1 = 0.9597	870.47
293.15 K, x1 = 1	864.31
303.15 K, x1 = 0.0541	1013.3
303.15 K, x1 = 0.1134	1002.37
303.15 K, x1 = 0.1954	987.52
303.15 K, x1 = 0.2562	976.72
303.15 K, x1 = 0.3214	965.31
303.15 K, x1 = 0.3895	953.58
303.15 K, x1 = 0.4487	943.53
303.15 K, x1 = 0.5014	934.7
303.15 K, x1 = 0.5782	922.02
303.15 K, x1 = 0.6484	910.6
303.15 K, x1 = 0.7154	899.86
303.15 K, x1 = 0.7654	891.93
303.15 K, x1 = 0.8241	882.72
303.15 K, x1 = 0.8815	873.79
303.15 K, x1 = 0.9465	863.8
303.15 K, x1 = 1	855.64
313.15 K, x1 = 0.0487	1005.18
313.15 K, x1 = 0.1151	992.96
313.15 K, x1 = 0.1745	982.21
313.15 K, x1 = 0.2495	968.86
313.15 K, x1 = 0.3147	957.46
313.15 K, x1 = 0.3851	945.34
313.15 K, x1 = 0.4587	932.89
313.15 K, x1 = 0.5185	922.93
313.15 K, x1 = 0.6214	906.08
313.15 K, x1 = 0.6785	896.89
313.15 K, x1 = 0.7484	885.77
313.15 K, x1 = 0.7945	878.53
313.15 K, x1 = 0.8521	869.55
313.15 K, x1 = 0.9021	861.83
313.15 K, x1 = 0.9548	853.77
313.15 K, x1 = 1	846.9
323.15 K, x1 = 0.0548	995.37
323.15 K, x1 = 0.1154	984.22
323.15 K, x1 = 0.1754	973.34
323.15 K, x1 = 0.2354	962.63
323.15 K, x1 = 0.2965	951.89
323.15 K, x1 = 0.3551	941.73
323.15 K, x1 = 0.4158	931.36
323.15 K, x1 = 0.4814	920.31
323.15 K, x1 = 0.5385	910.84
323.15 K, x1 = 0.5821	903.68
323.15 K, x1 = 0.6514	892.44
323.15 K, x1 = 0.7085	883.3
323.15 K, x1 = 0.7765	872.54
323.15 K, x1 = 0.8512	860.88
323.15 K, x1 = 0.9374	847.61
323.15 K, x1 = 1	838.09
333.15 K, x1 = 0.0451	987.86
333.15 K, x1 = 0.1102	975.88
333.15 K, x1 = 0.1985	959.95
333.15 K, x1 = 0.2511	950.64
333.15 K, x1 = 0.3201	938.59
333.15 K, x1 = 0.3952	925.71
333.15 K, x1 = 0.4625	914.36
333.15 K, x1 = 0.5214	904.57
333.15 K, x1 = 0.5985	891.95
333.15 K, x1 = 0.6584	882.28
333.15 K, x1 = 0.7121	873.71
333.15 K, x1 = 0.7741	863.94
333.15 K, x1 = 0.8351	854.42
333.15 K, x1 = 0.8812	847.31
333.15 K, x1 = 0.9487	836.99
333.15 K, x1 = 1	829.22
343.15 K, x1 = 0.0547	977.18
343.15 K, x1 = 0.1241	964.43
343.15 K, x1 = 0.1887	952.77
343.15 K, x1 = 0.2654	939.18
343.15 K, x1 = 0.3214	929.42
343.15 K, x1 = 0.3985	916.19
343.15 K, x1 = 0.4658	904.84
343.15 K, x1 = 0.5214	895.6
343.15 K, x1 = 0.5985	882.97
343.15 K, x1 = 0.6541	874
343.15 K, x1 = 0.7014	866.44
343.15 K, x1 = 0.7654	856.33
343.15 K, x1 = 0.8354	845.41
343.15 K, x1 = 0.8924	836.63
343.15 K, x1 = 0.9469	828.32
343.15 K, x1 = 1	820.29
353.15 K, x1 = 0.0544	968.44
353.15 K, x1 = 0.1214	956.1
353.15 K, x1 = 0.1958	942.64
353.15 K, x1 = 0.2562	931.9
353.15 K, x1 = 0.3214	920.5
353.15 K, x1 = 0.3985	907.25
353.15 K, x1 = 0.4515	898.28
353.15 K, x1 = 0.5114	888.28
353.15 K, x1 = 0.5941	874.69
353.15 K, x1 = 0.6621	863.71
353.15 K, x1 = 0.7214	854.26
353.15 K, x1 = 0.7852	844.22
353.15 K, x1 = 0.8471	834.59
353.15 K, x1 = 0.8915	827.76
353.15 K, x1 = 0.9565	817.85
353.15 K, x1 = 1	811.29
